# Numbers after ± are expanded uncertainties.
# Conditions: Liquid, Vibrating tube method
structure (smiles),measurement,setting,value
CC[n+]1ccccc1C.O=S(=O)([N-]S(=O)(=O)C(F)(F)F)C(F)(F)F,mass density,"283.15 K, 100 kPa",1520.3 ± 0.7 kg/m3
same,mass density,"283.15 K, 2500 kPa",1522.2 ± 0.7 kg/m3
same,mass density,"283.15 K, 5000 kPa",1523.8 ± 0.8 kg/m3
same,mass density,"283.15 K, 7500 kPa",1525.4 ± 0.8 kg/m3
same,mass density,"283.15 K, 10000 kPa",1527 ± 0.9 kg/m3
same,mass density,"283.15 K, 15000 kPa",1530.1 ± 1 kg/m3
same,mass density,"283.15 K, 20000 kPa",1533.1 ± 1.1 kg/m3
same,mass density,"283.15 K, 25000 kPa",1536 ± 1.2 kg/m3
same,mass density,"283.15 K, 30000 kPa",1538.8 ± 1.3 kg/m3
same,mass density,"283.15 K, 35000 kPa",1541.6 ± 1.4 kg/m3
same,mass density,"283.15 K, 45000 kPa",1546.9 ± 1.7 kg/m3
same,mass density,"283.15 K, 55000 kPa",1551.8 ± 1.9 kg/m3
same,mass density,"283.15 K, 65000 kPa",1556.4 ± 2.1 kg/m3
same,mass density,"288.15 K, 100 kPa",1515.4 ± 0.7 kg/m3
same,mass density,"288.15 K, 2500 kPa",1517.2 ± 0.7 kg/m3
same,mass density,"288.15 K, 5000 kPa",1518.9 ± 0.8 kg/m3
same,mass density,"288.15 K, 7500 kPa",1520.6 ± 0.8 kg/m3
same,mass density,"288.15 K, 10000 kPa",1522.2 ± 0.9 kg/m3
same,mass density,"288.15 K, 15000 kPa",1525.3 ± 1 kg/m3
same,mass density,"288.15 K, 20000 kPa",1528.3 ± 1.1 kg/m3
same,mass density,"288.15 K, 25000 kPa",1531.3 ± 1.2 kg/m3
same,mass density,"288.15 K, 30000 kPa",1534.2 ± 1.3 kg/m3
same,mass density,"288.15 K, 35000 kPa",1536.9 ± 1.4 kg/m3
same,mass density,"288.15 K, 45000 kPa",1542.2 ± 1.7 kg/m3
same,mass density,"288.15 K, 55000 kPa",1547.3 ± 1.9 kg/m3
same,mass density,"288.15 K, 65000 kPa",1552 ± 2.1 kg/m3
same,mass density,"293.15 K, 100 kPa",1510.5 ± 0.7 kg/m3
same,mass density,"293.15 K, 2500 kPa",1512.4 ± 0.7 kg/m3
same,mass density,"293.15 K, 5000 kPa",1514.1 ± 0.8 kg/m3
same,mass density,"293.15 K, 7500 kPa",1515.7 ± 0.8 kg/m3
same,mass density,"293.15 K, 10000 kPa",1517.4 ± 0.9 kg/m3
same,mass density,"293.15 K, 15000 kPa",1520.6 ± 1 kg/m3
same,mass density,"293.15 K, 20000 kPa",1523.6 ± 1.1 kg/m3
same,mass density,"293.15 K, 25000 kPa",1526.6 ± 1.2 kg/m3
same,mass density,"293.15 K, 30000 kPa",1529.5 ± 1.3 kg/m3
same,mass density,"293.15 K, 35000 kPa",1532.4 ± 1.4 kg/m3
same,mass density,"293.15 K, 45000 kPa",1537.8 ± 1.6 kg/m3
same,mass density,"293.15 K, 55000 kPa",1542.9 ± 1.9 kg/m3
same,mass density,"293.15 K, 65000 kPa",1547.7 ± 2.1 kg/m3
same,mass density,"298.15 K, 100 kPa",1505.6 ± 0.7 kg/m3
same,mass density,"298.15 K, 2500 kPa",1507.5 ± 0.7 kg/m3
same,mass density,"298.15 K, 5000 kPa",1509.2 ± 0.8 kg/m3
same,mass density,"298.15 K, 7500 kPa",1510.9 ± 0.8 kg/m3
same,mass density,"298.15 K, 10000 kPa",1512.5 ± 0.9 kg/m3
same,mass density,"298.15 K, 15000 kPa",1515.8 ± 1 kg/m3
same,mass density,"298.15 K, 20000 kPa",1519 ± 1.1 kg/m3
same,mass density,"298.15 K, 25000 kPa",1522 ± 1.2 kg/m3
same,mass density,"298.15 K, 30000 kPa",1525 ± 1.3 kg/m3
same,mass density,"298.15 K, 35000 kPa",1527.8 ± 1.4 kg/m3
same,mass density,"298.15 K, 45000 kPa",1533.3 ± 1.6 kg/m3
same,mass density,"298.15 K, 55000 kPa",1538.5 ± 1.9 kg/m3
same,mass density,"298.15 K, 65000 kPa",1543.4 ± 2.1 kg/m3
same,mass density,"303.15 K, 100 kPa",1500.8 ± 0.7 kg/m3
same,mass density,"303.15 K, 2500 kPa",1502.7 ± 0.7 kg/m3
same,mass density,"303.15 K, 5000 kPa",1504.5 ± 0.8 kg/m3
same,mass density,"303.15 K, 7500 kPa",1506.2 ± 0.8 kg/m3
same,mass density,"303.15 K, 10000 kPa",1507.9 ± 0.9 kg/m3
same,mass density,"303.15 K, 15000 kPa",1511.2 ± 1 kg/m3
same,mass density,"303.15 K, 20000 kPa",1514.3 ± 1.1 kg/m3
same,mass density,"303.15 K, 25000 kPa",1517.5 ± 1.2 kg/m3
same,mass density,"303.15 K, 30000 kPa",1520.5 ± 1.3 kg/m3
same,mass density,"303.15 K, 35000 kPa",1523.4 ± 1.4 kg/m3
same,mass density,"303.15 K, 45000 kPa",1528.9 ± 1.6 kg/m3
same,mass density,"303.15 K, 55000 kPa",1534.2 ± 1.8 kg/m3
same,mass density,"303.15 K, 65000 kPa",1539.2 ± 2.1 kg/m3
same,mass density,"308.15 K, 100 kPa",1495.9 ± 0.7 kg/m3
same,mass density,"308.15 K, 2500 kPa",1497.9 ± 0.7 kg/m3
same,mass density,"308.15 K, 5000 kPa",1499.7 ± 0.8 kg/m3
same,mass density,"308.15 K, 7500 kPa",1501.4 ± 0.8 kg/m3
same,mass density,"308.15 K, 10000 kPa",1503.1 ± 0.9 kg/m3
same,mass density,"308.15 K, 15000 kPa",1506.5 ± 1 kg/m3
same,mass density,"308.15 K, 20000 kPa",1509.7 ± 1.1 kg/m3
same,mass density,"308.15 K, 25000 kPa",1512.9 ± 1.2 kg/m3
same,mass density,"308.15 K, 30000 kPa",1515.9 ± 1.3 kg/m3
same,mass density,"308.15 K, 35000 kPa",1518.9 ± 1.4 kg/m3
same,mass density,"308.15 K, 45000 kPa",1524.5 ± 1.6 kg/m3
same,mass density,"308.15 K, 55000 kPa",1529.9 ± 1.8 kg/m3
same,mass density,"308.15 K, 65000 kPa",1534.9 ± 2.1 kg/m3
same,mass density,"313.15 K, 100 kPa",1491.1 ± 0.7 kg/m3
same,mass density,"313.15 K, 2500 kPa",1493.2 ± 0.7 kg/m3
same,mass density,"313.15 K, 5000 kPa",1495 ± 0.8 kg/m3
same,mass density,"313.15 K, 7500 kPa",1496.8 ± 0.8 kg/m3
same,mass density,"313.15 K, 10000 kPa",1498.5 ± 0.9 kg/m3
same,mass density,"313.15 K, 15000 kPa",1502 ± 1 kg/m3
same,mass density,"313.15 K, 20000 kPa",1505.2 ± 1.1 kg/m3
same,mass density,"313.15 K, 25000 kPa",1508.4 ± 1.2 kg/m3
same,mass density,"313.15 K, 30000 kPa",1511.5 ± 1.3 kg/m3
same,mass density,"313.15 K, 35000 kPa",1514.5 ± 1.4 kg/m3
same,mass density,"313.15 K, 45000 kPa",1520.3 ± 1.6 kg/m3
same,mass density,"313.15 K, 55000 kPa",1525.7 ± 1.8 kg/m3
same,mass density,"313.15 K, 65000 kPa",1530.8 ± 2 kg/m3
same,mass density,"318.15 K, 100 kPa",1486.3 ± 0.7 kg/m3
same,mass density,"318.15 K, 2500 kPa",1488.4 ± 0.7 kg/m3
same,mass density,"318.15 K, 5000 kPa",1490.3 ± 0.8 kg/m3
same,mass density,"318.15 K, 7500 kPa",1492.1 ± 0.8 kg/m3
same,mass density,"318.15 K, 10000 kPa",1493.8 ± 0.9 kg/m3
same,mass density,"318.15 K, 15000 kPa",1497.3 ± 1 kg/m3
same,mass density,"318.15 K, 20000 kPa",1500.6 ± 1.1 kg/m3
same,mass density,"318.15 K, 25000 kPa",1503.9 ± 1.2 kg/m3
same,mass density,"318.15 K, 30000 kPa",1507 ± 1.3 kg/m3
same,mass density,"318.15 K, 35000 kPa",1510.1 ± 1.4 kg/m3
same,mass density,"318.15 K, 45000 kPa",1515.9 ± 1.6 kg/m3
same,mass density,"318.15 K, 55000 kPa",1521.4 ± 1.8 kg/m3
same,mass density,"318.15 K, 65000 kPa",1526.6 ± 2 kg/m3
same,mass density,"323.15 K, 100 kPa",1481.5 ± 0.7 kg/m3
same,mass density,"323.15 K, 2500 kPa",1483.7 ± 0.7 kg/m3
same,mass density,"323.15 K, 5000 kPa",1485.6 ± 0.8 kg/m3
same,mass density,"323.15 K, 7500 kPa",1487.4 ± 0.8 kg/m3
same,mass density,"323.15 K, 10000 kPa",1489.2 ± 0.9 kg/m3
same,mass density,"323.15 K, 15000 kPa",1492.7 ± 1 kg/m3
same,mass density,"323.15 K, 20000 kPa",1496.2 ± 1.1 kg/m3
same,mass density,"323.15 K, 25000 kPa",1499.5 ± 1.2 kg/m3
same,mass density,"323.15 K, 30000 kPa",1502.6 ± 1.3 kg/m3
same,mass density,"323.15 K, 35000 kPa",1505.7 ± 1.4 kg/m3
same,mass density,"323.15 K, 45000 kPa",1511.7 ± 1.6 kg/m3
same,mass density,"323.15 K, 55000 kPa",1517.3 ± 1.8 kg/m3
same,mass density,"323.15 K, 65000 kPa",1522.5 ± 2 kg/m3
same,mass density,"328.15 K, 100 kPa",1476.8 ± 0.7 kg/m3
same,mass density,"328.15 K, 2500 kPa",1478.9 ± 0.7 kg/m3
same,mass density,"328.15 K, 5000 kPa",1480.8 ± 0.7 kg/m3
same,mass density,"328.15 K, 7500 kPa",1482.7 ± 0.8 kg/m3
same,mass density,"328.15 K, 10000 kPa",1484.5 ± 0.8 kg/m3
same,mass density,"328.15 K, 15000 kPa",1488.1 ± 0.9 kg/m3
same,mass density,"328.15 K, 20000 kPa",1491.6 ± 1 kg/m3
same,mass density,"328.15 K, 25000 kPa",1494.9 ± 1.1 kg/m3
same,mass density,"328.15 K, 30000 kPa",1498.2 ± 1.2 kg/m3
same,mass density,"328.15 K, 35000 kPa",1501.4 ± 1.4 kg/m3
same,mass density,"328.15 K, 45000 kPa",1507.4 ± 1.6 kg/m3
same,mass density,"328.15 K, 55000 kPa",1513 ± 1.8 kg/m3
same,mass density,"328.15 K, 65000 kPa",1518.4 ± 2 kg/m3
same,mass density,"333.15 K, 100 kPa",1472 ± 0.6 kg/m3
same,mass density,"333.15 K, 2500 kPa",1474.3 ± 0.7 kg/m3
same,mass density,"333.15 K, 5000 kPa",1476.2 ± 0.7 kg/m3
same,mass density,"333.15 K, 7500 kPa",1478.1 ± 0.8 kg/m3
same,mass density,"333.15 K, 10000 kPa",1480 ± 0.8 kg/m3
same,mass density,"333.15 K, 15000 kPa",1483.6 ± 0.9 kg/m3
same,mass density,"333.15 K, 20000 kPa",1487.2 ± 1 kg/m3
same,mass density,"333.15 K, 25000 kPa",1490.5 ± 1.1 kg/m3
same,mass density,"333.15 K, 30000 kPa",1493.9 ± 1.2 kg/m3
same,mass density,"333.15 K, 35000 kPa",1497 ± 1.3 kg/m3
same,mass density,"333.15 K, 45000 kPa",1503.2 ± 1.6 kg/m3
same,mass density,"333.15 K, 55000 kPa",1509 ± 1.8 kg/m3
same,mass density,"333.15 K, 65000 kPa",1514.3 ± 2 kg/m3
